Results reported in patent publication US20170368082A1, “FORMULATIONS OF BRINCIDOFOVIR” (priority 2016, published 2017).
“Also recorded” adds a separate entry of the source.

Columns and labels:
[1] = Sterilization filter compatibility; type: physicochemical
Protocol: Formulations of the disclosure were evaluated for sterilization filter compatibility. Aliquots of a testing brincidofovir formulation were filtered through the corresponding syringe filters as follows:
A: Filter: 0.2 μm, 25 mm, syringe filter, Supor® membrane (PES), sterile; testing solution: 10 mg/mL brincidofovir, 200 mM sodium phosphate, pH=8.0; testing volume: 10 mL. B: Filter: 0.2 μm, 25 mm, syringe filter, Posidyne® membrane, sterile; testing solution: 10 mg/mL brincidofovir, 200 mM sodium phosphate, pH=8.0; testing volume: 10 mL. C: Filter: 0.22 μm, 33 mm, syringe filter, Durapore® PVDF membrane, γ-irradiated; testing solution: […] brincidofovir, 4 mM sodium phosphate, pH-8, approx. 5% dextrose (50× dilution of 10 mg/mL brincidofovir, 200 mM sodium phosphate, pH=8.0 with 5% dextrose solution; testing volume: 50 mL.
The first and last 10% of the filtrate were collected. Samples of the collected filtrates, along with samples of the pre filtration formulation, were assessed for their appearance, pH, and c(BCV).

[2] = system: human whole blood; assay: Hemolytic potential, cyanmethemoglobin method, human whole blood; type: cell-based; settings: for Mean HgB Concentration: interference control, Phase 2
Protocol: Each concentration of test item for the rat was mixed separately in a 1:4 ratio with rat whole blood while each concentration of test item for the human was mixed separately in a 1:4 ratio with human whole blood. These samples plus control samples [vehicle control (vehicle+whole blood, 1 for rat and 1 for humans), positive control (1% Saponin+whole blood), untreated whole blood control and negative control (saline+whole blood) were analyzed for hemolysis (supernatant hemoglobin concentration).
(§1) The rat and human whole blood samples were incubated in test or control items at 37±1° C. for 20 minutes and then immediately (within 2 minutes) centrifuged at 3500±100 rpm (2740 g) at room temperature for 5-10 minutes. The supernatant was extracted and subjected to a hemoglobin analysis using the cyanmethemoglobin method employed on the Siemens Advia 120 hematology analyzer. If the test item has a potential for causing hemolysis, then hemoglobin released from lysed red blood cells into the plasma supernatant can be quantified via the reaction of heme iron in solution being oxidized from a ferrous to a ferric state in the presence of potassium cyanide. The reaction results in the formation of methemoglobin, which then combines with cyanide to form a stable cyanmethemoglobin. When measured spectrophotometrically at 546 nm the absorbance of cyanmethemoglobin follows Beer's Law and is directly proportional to the concentration of hemoglobin released into solution.
as §1, with “Without wishing to be bound by theory, if” for “If”

[3] = Stability and confirmation analysis of stock and dose formulations; type: physicochemical
Protocol: Brincidofovir injectable liquid stock formulation was prepared to 15 mg/mL brincidofovir, compounded from stock solutions inclusive of three (3) steps: (1) 2× sodium phosphate buffer solution (400 mM, pH=8.0) was prepared; (2) 1.0 N sodium hydroxide solution was purchased; brincidofovir injectable liquid stock formulation (15 mg/mL brincidofovir, 200 mM sodium phosphate, pH=8.0) from solid brincidofovir, 1.0 N sodium hydroxide solution, 2× sodium phosphate buffer solution and WFI (water for injection) was prepared.
The brincidofovir injectable liquid stock formulation is stable for 28 days under refrigerated conditions (2 to 8° C.). Brincidofovir injectable liquid stock formulation was diluted with 5% dextrose to yield the desired dose concentration.
The brincidofovir stock solution of 15.0 mg/mL was stable for 24 hours when stored at room temperature (nominally 20° C.) and for 8, 14 and 28 days when stored at 2 to 8° C.
Two samples (5 mL each) were taken on the day of preparation from the middle region of each dosing formulation (including control) prepared for each week. One sample was analyzed, in duplicate, for dose confirmation analysis and one sample was retained refrigerated (2 to 8° C.) (Due to initial results outside the study acceptance plan criteria (±10% of nominal), the Group 2 retained samples were re-analyzed for Weeks 1 and 2).
Analysis of preliminary mixes confirmed that the test item was stable in the vehicle for at least 24 hours at room temperature (nominally 20° C.) and for at least 8 days at 2 to 8° C. (under storage conditions used in this study). Analyses conducted during the treatment period confirmed that with the exception of the Day 1, 1 mg/mL (Group 2) formulation, dose solutions of appropriate concentration were administered. The Day 1, 1 mg/mL dose solution was 86.7% of nominal. Without wishing to be bound by theory, it was concluded that due to interactions at the meniscus, the volume collected for dose formulation analysis may have lowered the analysis results. The volume collected for analysis was increased for subsequent weekly preparations and confirmed to be of appropriate concentration.

[4] = PES filter membrane, first 10% filtrate volume
[5] = PES filter membrane, last 10% filtrate volume
[6] = PES filter membrane, pre filtration
[7] = PVDF filter membrane, first 10% filtrate volume
[8] = PVDF filter membrane, last 10% filtrate volume
[9] = PVDF filter membrane, pre filtration
[10] = Posidyne filter membrane, first 10% filtrate volume
[11] = Posidyne filter membrane, last 10% filtrate volume
[12] = Posidyne filter membrane, pre filtration

CCCCCCCCCCCCCCCCOCCCOP(=O)(O)CO[C@H](CO)Cn1ccc(N)nc1=O [Brincidofovir]
Appearance [1, 4]: Clear, | Measured pH [1, 4]: 8.0 | Observed c(BCV) [1, 4]: 9.8 mg/mL | Appearance [1, 5]: Clear, | Measured pH [1, 5]: 8.0 | Observed c(BCV) [1, 5]: 9.8 mg/mL | Appearance [1, 6]: Clear, | Measured pH [1, 6]: 8.1 | Observed c(BCV) [1, 6]: 9.9 mg/mL | Appearance [1, 7]: Clear, | Measured pH [1, 7]: 8.1 | Observed c(BCV) [1, 7]: 0.20 mg/mL | Appearance [1, 8]: Clear, | Measured pH [1, 8]: 8.1 | Observed c(BCV) [1, 8]: 0.20 mg/mL | Appearance [1, 9]: Clear, | Measured pH [1, 9]: 8.0 | Observed c(BCV) [1, 9]: 0.20 mg/mL | Appearance [1, 10]: Clear, | Measured pH [1, 10]: 8.0 | Observed c(BCV) [1, 10]: 9.7 mg/mL | Appearance [1, 11]: Clear, | Measured pH [1, 11]: 8.0 | Observed c(BCV) [1, 11]: 9.8 mg/mL | Appearance [1, 12]: Clear, | Measured pH [1, 12]: 8.1 | Observed c(BCV) [1, 12]: 9.9 mg/mL | Hemocompatibility / hemolytic potential ([2]; 0.2, 0.5 and 1.6 mg/mL): no hemolytic potential in human whole blood; also recorded: no effect from brincidofovir on hemocompatibility | Mean HgB Concentration ([2]; Tube 2A: Test Item (0.2 mg/mL) + saline): 0.0 g/dL | Mean HgB Concentration ([2]; Tube 2B: Test Item (0.5 mg/mL) + saline): 0.0 g/dL | Mean HgB Concentration ([2]; Tube 2C: Test Item (1.6 mg/mL) + saline): 0.0 g/dL | Stable for (refrigerated) ([3]; 0.05 mg/mL and 2.0 mg/mL, 2 to 8 °C): at least 8 days | Stable for (room temperature) ([3]; 0.05 mg/mL and 2.0 mg/mL, room temperature): at least 24 hours | ANALYTICAL CONCENTRATION (% of Nominal) ([3]; dose formulation Day 1, Group 2, nominal 1 (ppm) OR (mg/mL)): 86.7 % of Nominal | ANALYTICAL CONCENTRATION (% of Nominal) ([3]; dose formulation Day 1, Group 2 Back-up, nominal 1 (ppm) OR (mg/mL)): 76.9 % of Nominal | ANALYTICAL CONCENTRATION (% of Nominal) ([3]; dose formulation Day 1, Group 2 Repeat Preparation, nominal 1 (ppm) OR (mg/mL)): 75.5 % of Nominal | ANALYTICAL CONCENTRATION (% of Nominal) ([3]; dose formulation Day 1, Group 3, nominal 4 (ppm) OR (mg/mL)): 95.7 % of Nominal | ANALYTICAL CONCENTRATION (% of Nominal) ([3]; dose formulation Day 1, Group 4, nominal 15 (ppm) OR (mg/mL)): 100.7 % of Nominal | ANALYTICAL CONCENTRATION (% of Nominal) ([3]; dose formulation Week 2, Group 2, nominal 1 (ppm) OR (mg/mL)): 90.1 % of Nominal | ANALYTICAL CONCENTRATION (% of Nominal) ([3]; dose formulation Week 2, Group 2 Back-up, nominal 1 (ppm) OR (mg/mL)): 86.8 % of Nominal | ANALYTICAL CONCENTRATION (% of Nominal) ([3]; dose formulation Week 2, Group 3, nominal 4 (ppm) OR (mg/mL)): 95.4 % of Nominal | ANALYTICAL CONCENTRATION (% of Nominal) ([3]; dose formulation Week 2, Group 4, nominal 15 (ppm) OR (mg/mL)): 102.9 % of Nominal | ANALYTICAL CONCENTRATION (% of Nominal) ([3]; dose formulation Week 3, Group 2, nominal 1 (ppm) OR (mg/mL)): 93.2 % of Nominal | ANALYTICAL CONCENTRATION (% of Nominal) ([3]; dose formulation Week 3, Group 3, nominal 4 (ppm) OR (mg/mL)): 94.8 % of Nominal | ANALYTICAL CONCENTRATION (% of Nominal) ([3]; dose formulation Week 3, Group 4, nominal 15 (ppm) OR (mg/mL)): 100.2 % of Nominal | ANALYTICAL CONCENTRATION (% of Nominal) ([3]; dose formulation Week 4, Group 2, nominal 1 (ppm) OR (mg/mL)): 92.8 % of Nominal | ANALYTICAL CONCENTRATION (% of Nominal) ([3]; dose formulation Week 4, Group 3, nominal 4 (ppm) OR (mg/mL)): 96.9 % of Nominal | ANALYTICAL CONCENTRATION (% of Nominal) ([3]; dose formulation Week 4, Group 4, nominal 15 (ppm) OR (mg/mL)): 101.0 % of Nominal | ANALYTICAL CONCENTRATION (% of Nominal) ([3]; dose formulation Week 5, Group 2, nominal 1 (ppm) OR (mg/mL)): 94.9 % of Nominal | ANALYTICAL CONCENTRATION (% of Nominal) ([3]; dose formulation Week 5, Group 3, nominal 4 (ppm) OR (mg/mL)): 97.7 % of Nominal | ANALYTICAL CONCENTRATION (% of Nominal) ([3]; dose formulation Week 5, Group 4, nominal 15 (ppm) OR (mg/mL)): 101.1 % of Nominal
